From BindingDB's records for patent WO2022093820 (GENENTECH, INC., 2022)

target: Phosphatidylinositol 3-kinase catalytic subunit type 3 (Homo sapiens, UniProt Q8NEB9); test: VPS34 ADP-Glo kinase assay
Description: Experimental compound in DMSO was dispensed to a 384-well microplate via acoustic dispenser at 50 nl per well. […] Assay buffer conditions were as follows: 50 mM HEPES, pH 7.5, 3 mM MnCl2, 0.01% BSA, 0.01% Brij 35, 1 mM TCEP. The 5 µl reaction was incubated for 90 minutes at room temperature, and then quenched with equal volume of ADP-Glo Reagent (5 µl; Promega). Quenched reaction was incubated for 60 min, followed by addition of an equal volume of Kinase Detection Reagent (10 µl; Promega). Luminescence signal was detected on an Envision (Perkin Elmer).

Chain of Phosphatidylinositol 3-kinase catalytic subunit type 3 (Q8NEB9 whole entry): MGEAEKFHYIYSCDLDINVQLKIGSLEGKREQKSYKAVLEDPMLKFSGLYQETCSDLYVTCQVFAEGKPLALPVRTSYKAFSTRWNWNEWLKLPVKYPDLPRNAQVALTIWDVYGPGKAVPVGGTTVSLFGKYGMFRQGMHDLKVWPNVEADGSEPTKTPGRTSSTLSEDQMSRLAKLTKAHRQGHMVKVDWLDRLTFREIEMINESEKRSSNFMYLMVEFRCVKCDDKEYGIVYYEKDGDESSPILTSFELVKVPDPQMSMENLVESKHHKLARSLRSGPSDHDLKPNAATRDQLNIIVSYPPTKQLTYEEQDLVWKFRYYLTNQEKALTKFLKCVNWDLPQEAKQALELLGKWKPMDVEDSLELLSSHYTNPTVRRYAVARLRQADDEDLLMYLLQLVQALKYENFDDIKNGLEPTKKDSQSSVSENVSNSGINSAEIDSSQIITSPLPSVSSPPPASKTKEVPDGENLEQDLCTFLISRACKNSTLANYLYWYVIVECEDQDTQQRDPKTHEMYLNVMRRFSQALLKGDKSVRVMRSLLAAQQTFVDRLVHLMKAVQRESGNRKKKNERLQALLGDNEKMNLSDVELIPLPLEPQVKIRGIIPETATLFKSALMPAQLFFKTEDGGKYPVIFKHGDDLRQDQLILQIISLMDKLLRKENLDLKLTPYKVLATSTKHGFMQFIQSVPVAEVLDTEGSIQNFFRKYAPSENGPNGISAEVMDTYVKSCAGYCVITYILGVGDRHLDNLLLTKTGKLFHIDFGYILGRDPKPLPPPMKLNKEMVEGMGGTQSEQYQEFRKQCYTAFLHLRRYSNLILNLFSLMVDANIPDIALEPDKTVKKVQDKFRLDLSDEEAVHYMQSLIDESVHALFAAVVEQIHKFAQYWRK

Row | IC50 | Compound
1 | 56 nM | C[C@@H]1COCCN1c1cc2n(n1)[C@H](C1(C)CC1)CNC2=O [WO2022093820, Compound 11]
2 | 3350 nM | C[C@@H]1COCCN1c1cc2n(n1)[C@@H](C1(C)CC1)CNC2=O [WO2022093820, Compound 12]
3 | 52 nM | C[C@@H]1COCCN1c1cc2n(n1)[C@H](C(F)(F)C(F)(F)F)CNC2=O [WO2022093820, Compound 15]
4 | 50000 nM | C[C@@H]1COCCN1c1cc2n(n1)[C@@H](C(F)(F)C(F)(F)F)CNC2=O [WO2022093820, Compound 16]
5 | 41 nM | C[C@@H]1COCCN1c1cc2n(n1)[C@](C)(C1CC1)CNC2=O [WO2022093820, Compound 23]
6 | 1340 nM | C[C@@H]1COCCN1c1cc2n(n1)[C@@](C)(C1CC1)CNC2=O [WO2022093820, Compound 24]
7 | 90 nM | CC(C)[C@]1(C)CNC(=O)c2cc(N3CCOC[C@H]3C)nn21 [WO2022093820, Compound 25]
8 | 2170 nM | CC(C)[C@@]1(C)CNC(=O)c2cc(N3CCOC[C@H]3C)nn21 [WO2022093820, Compound 26]
9 | 32 nM | CC[C@@]1(C2CC2)CNC(=O)c2cc(N3CCOC[C@H]3C)nn21 [WO2022093820, Compound 27]
10 | 1300 nM | CC[C@]1(C2CC2)CNC(=O)c2cc(N3CCOC[C@H]3C)nn21 [WO2022093820, Compound 28]
11 | 27 nM | C[C@@H]1COCCN1c1cc2n(n1)[C@](C)(C1CC1)C1(CC1)NC2=O [WO2022093820, Compound 29]
12 | 1750 nM | C[C@@H]1COCCN1c1cc2n(n1)[C@@](C)(C1CC1)C1(CC1)NC2=O [WO2022093820, Compound 30]
13 | 24 nM | CC(C)[C@H]1n2nc(N3CCOC[C@H]3C)cc2C(=O)NC12CC2 [WO2022093820, Compound 33]
14 | 21000 nM | CC(C)[C@@H]1n2nc(N3CCOC[C@H]3C)cc2C(=O)NC12CC2 [WO2022093820, Compound 34]
15 | 51 nM | C[C@@H]1COCCN1c1cc2n(n1)[C@@H]1CCC(C)(C)[C@@H]1NC2=O [WO2022093820, Compound 41]
16 | 4000 nM | C[C@@H]1COCCN1c1cc2n(n1)[C@](C)(C1CCC1)CNC2=O [WO2022093820, Compound 44]
17 | 260 nM | C[C@@H]1COCCN1c1cc2n(n1)[C@@](C)(C1CCC1)CNC2=O [WO2022093820, Compound 45]
18 | 12800 nM | CC[C@@H]1CNC(=O)c2cc(N3CCOC[C@H]3C)nn21 [WO2022093820, Compound 46]
19 | 747 nM | CC[C@H]1CNC(=O)c2cc(N3CCOC[C@H]3C)nn21 [WO2022093820, Compound 47]
20 | 100 nM | C[C@@H]1COCCN1c1cc2n(n1)[C@H](C1(c3ccccc3)CC1)CNC2=O [WO2022093820, Compound 48]
21 | 35000 nM | C[C@@H]1COCCN1c1cc2n(n1)[C@@H](C1(c3ccccc3)CC1)CNC2=O [WO2022093820, Compound 49]

Row | IC50 | Compound
22 | 847 nM | CC(C)C1(CO)CNC(=O)c2cc(N3CCOC[C@H]3C)nn21 (stereo partly specified) [WO2022093820, Compound 50]
23 | 682 nM | C[C@@H]1COCCN1c1cc2n(n1)C[C@H](CC(F)(F)F)NC2=O [WO2022093820, Compound 51]
24 | 24700 nM | C[C@@H]1COCCN1c1cc2n(n1)C[C@@H](CC(F)(F)F)NC2=O [WO2022093820, Compound 52]
25 | 36200 nM | COC[C@@]1(C(C)C)CNC(=O)c2cc(N3CCOC[C@H]3C)nn21 [WO2022093820, Compound 53]
26 | 563 nM | COC[C@]1(C(C)C)CNC(=O)c2cc(N3CCOC[C@H]3C)nn21 [WO2022093820, Compound 54]
27 | 50000 nM | C[C@H](c1ccccc1)C1CNC(=O)c2cc(N3CCOC[C@H]3C)nn21 (stereo partly specified) [WO2022093820, Compound 55]
28 | 119 nM | C[C@@H]1COCCN1c1cc2n(n1)C([C@@H](C)c1ccccc1)CNC2=O (stereo partly specified) [WO2022093820, Compound 56]
29 | 50000 nM | C[C@H](c1ccccc1)[C@@H]1CNC(=O)c2cc(N3CCOC[C@H]3C)nn21 [WO2022093820, Compound 57]
30 | 388 nM | C[C@@H]1COCCN1c1cc2n(n1)[C@H]([C@@H](C)c1ccccc1)CNC2=O [WO2022093820, Compound 58]
31 | 36000 nM | C[C@@H]1COCCN1c1cc2n(n1)[C@H](CC(F)(F)F)CNC2=O [WO2022093820, Compound 59]
32 | 429 nM | C[C@@H]1COCCN1c1cc2n(n1)[C@@H](CC(F)(F)F)CNC2=O [WO2022093820, Compound 60]
33 | 12800 nM | CC(C)C[C@@H]1CNC(=O)c2cc(N3CCOC[C@H]3C)nn21 [WO2022093820, Compound 61]
34 | 739 nM | CC(C)C[C@H]1CNC(=O)c2cc(N3CCOC[C@H]3C)nn21 [WO2022093820, Compound 62]
35 | 33600 nM | CC[C@@H](C)C[C@H]1CNC(=O)c2cc(N3CCOC[C@H]3C)nn21 [WO2022093820, Compound 64]
36 | 109 nM | CC[C@H](C)C[C@@H]1CNC(=O)c2cc(N3CCOC[C@H]3C)nn21 [WO2022093820, Compound 65]
37 | 32400 nM | C[C@H](CO)[C@@H]1CNC(=O)c2cc(N3CCOC[C@H]3C)nn21 [WO2022093820, Compound 67]
38 | 27300 nM | C[C@@H]1COCCN1c1cc2n(n1)[C@H]([C@@H](C)CO)CNC2=O [WO2022093820, Compound 68]
39 | 784 nM | C[C@@H]1COCCN1c1cc2n(n1)C([C@@H](C)CO)CNC2=O (stereo partly specified) [WO2022093820, Compound 69]
40 | 532 nM | C[C@H](CO)C1CNC(=O)c2cc(N3CCOC[C@H]3C)nn21 (stereo partly specified) [WO2022093820, Compound 70]
41 | 919 nM | C[C@@H]1COCCN1c1cc2n(n1)C(C)(C)CNC2=O [WO2022093820, Compound 71]
